Measurements published in PubChem BioAssay (NCI).
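Following 48 hours of exposure in 96-well plates, responses at five concentrations were used to interpolate endpoints linearly. At the GI50, growth is halved. At the TGI there is no net growth.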

Tested on: 786-0 renal
Assay: NCI tumour cell line growth inhibition, 48 h

SMILES | GI50 [µM] | TGI [µM]
Cc1cc(NC(=O)c2ccc(C)c(Nc3nccc(-c4cccnc4)n3)c2)cc(-n2cnc(C)c2)c1 | 1.56 | 6.12
O=C(O)c1c(-c2nccc3ccccc23)[nH]c(-c2ccccc2)c1S(=O)(=O)O | – | > 100
Cc1[nH]n(-c2cccc(Cl)c2)c(=O)c1/C=C1\C=Nc2ccc(Br)cc21 | 2.14 | 4.68
CCCS(=O)(=O)Nc1ccc(Nc2c3ccccc3nc3ccccc23)c(OC)c1 | – | 3.49
CCN(CC)CCNCC(=O)Oc1ccc(/C=C/C(=O)CC(=O)/C=C/c2ccc(OC(=O)CNCCN(CC)CC)c(OC)c2)cc1OC | 2.38 | 5.93
O=C(O)Cc1c(O)ccc2ccccc12 | – | > 100
Cc1ccc(Nc2nc(N)c(C(=O)c3ccc(C#N)cc3)s2)cc1 | 0.529 | > 49.8
CN(C)Cc1c[nH]c2c1C(=O)c1c(c(O)c3ccccc3c1O)C2=O | 10.5 | 33.6
CN1CCc2c(Sc3ccc(C(=O)NO)cc3)c3ccccc3n2C1 | 4.12 | 15.3
CC(=O)O[C@@H]1C[C@]2(C(C)C)O[C@@]1(C)[C@@H]1CCC(C)=C1[C@@H]2OC(=O)/C=C/c1ccccc1 | 84.3 | > 100
NC(N)=N/N=C/c1cc(Cl)cc(Cl)c1O | – | > 100
N#CC1Nc2ccccc2[C@@H](O)C1O (some centres undefined) | – | > 100
c1ccc2c3ccn4cc5c(cc4c-3nc2c1)CCCC5 | 3.46 | 13.5

Tested on: SNB-75 CNS
Assay: NCI tumour cell line growth inhibition, 48 h

SMILES | GI50 [µM] | TGI [µM]
Cc1cc(NC(=O)c2ccc(C)c(Nc3nccc(-c4cccnc4)n3)c2)cc(-n2cnc(C)c2)c1 | 1.1 | 2.81
O=C(O)c1c(-c2nccc3ccccc23)[nH]c(-c2ccccc2)c1S(=O)(=O)O | – | > 100
Cc1[nH]n(-c2cccc(Cl)c2)c(=O)c1/C=C1\C=Nc2ccc(Br)cc21 | 1.25 | 3.37
CCCS(=O)(=O)Nc1ccc(Nc2c3ccccc3nc3ccccc23)c(OC)c1 | – | 6.49
CCN(CC)CCNCC(=O)Oc1ccc(/C=C/C(=O)CC(=O)/C=C/c2ccc(OC(=O)CNCCN(CC)CC)c(OC)c2)cc1OC | 6.31 | 28.1
O=C(O)Cc1c(O)ccc2ccccc12 | – | > 100
Cc1ccc(Nc2nc(N)c(C(=O)c3ccc(C#N)cc3)s2)cc1 | 0.241 | 8.11
CN(C)Cc1c[nH]c2c1C(=O)c1c(c(O)c3ccccc3c1O)C2=O | 20 | 53.5
CN1CCc2c(Sc3ccc(C(=O)NO)cc3)c3ccccc3n2C1 | 0.674 | 3.79
CC(=O)O[C@@H]1C[C@]2(C(C)C)O[C@@]1(C)[C@@H]1CCC(C)=C1[C@@H]2OC(=O)/C=C/c1ccccc1 | 27.9 | > 100
NC(N)=N/N=C/c1cc(Cl)cc(Cl)c1O | – | 89.1
N#CC1Nc2ccccc2[C@@H](O)C1O (some centres undefined) | – | > 100
c1ccc2c3ccn4cc5c(cc4c-3nc2c1)CCCC5 | 3.12 | 12.3

Tested on: TK-10 renal
Assay: NCI tumour cell line growth inhibition, 48 h

SMILES | GI50 [µM] | TGI [µM]
Cc1cc(NC(=O)c2ccc(C)c(Nc3nccc(-c4cccnc4)n3)c2)cc(-n2cnc(C)c2)c1 | 0.0882 | 2.2
O=C(O)c1c(-c2nccc3ccccc23)[nH]c(-c2ccccc2)c1S(=O)(=O)O | – | > 100
Cc1[nH]n(-c2cccc(Cl)c2)c(=O)c1/C=C1\C=Nc2ccc(Br)cc21 | 2.6 | 5.18
CCCS(=O)(=O)Nc1ccc(Nc2c3ccccc3nc3ccccc23)c(OC)c1 | – | 15.6
CCN(CC)CCNCC(=O)Oc1ccc(/C=C/C(=O)CC(=O)/C=C/c2ccc(OC(=O)CNCCN(CC)CC)c(OC)c2)cc1OC | 6.72 | 23.5
O=C(O)Cc1c(O)ccc2ccccc12 | – | > 100
Cc1ccc(Nc2nc(N)c(C(=O)c3ccc(C#N)cc3)s2)cc1 | 10.4 | > 78.8
CN(C)Cc1c[nH]c2c1C(=O)c1c(c(O)c3ccccc3c1O)C2=O | 5.08 | 19.7
CN1CCc2c(Sc3ccc(C(=O)NO)cc3)c3ccccc3n2C1 | 2.62 | 8.19
CC(=O)O[C@@H]1C[C@]2(C(C)C)O[C@@]1(C)[C@@H]1CCC(C)=C1[C@@H]2OC(=O)/C=C/c1ccccc1 | 93.2 | > 100
NC(N)=N/N=C/c1cc(Cl)cc(Cl)c1O | – | > 100
N#CC1Nc2ccccc2[C@@H](O)C1O (some centres undefined) | – | > 100
c1ccc2c3ccn4cc5c(cc4c-3nc2c1)CCCC5 | 12.8 | 26

Tested on: SF-268 CNS
Assay: NCI tumour cell line growth inhibition, 48 h

SMILES | GI50 [µM] | TGI [µM]
Cc1cc(NC(=O)c2ccc(C)c(Nc3nccc(-c4cccnc4)n3)c2)cc(-n2cnc(C)c2)c1 | 5.46 | 13.4
O=C(O)c1c(-c2nccc3ccccc23)[nH]c(-c2ccccc2)c1S(=O)(=O)O | – | > 100
Cc1[nH]n(-c2cccc(Cl)c2)c(=O)c1/C=C1\C=Nc2ccc(Br)cc21 | 5.49 | 26.4
CCCS(=O)(=O)Nc1ccc(Nc2c3ccccc3nc3ccccc23)c(OC)c1 | – | 8.31
CCN(CC)CCNCC(=O)Oc1ccc(/C=C/C(=O)CC(=O)/C=C/c2ccc(OC(=O)CNCCN(CC)CC)c(OC)c2)cc1OC | 3.68 | > 100
O=C(O)Cc1c(O)ccc2ccccc12 | – | > 100
Cc1ccc(Nc2nc(N)c(C(=O)c3ccc(C#N)cc3)s2)cc1 | 2.59 | > 95.9
CN(C)Cc1c[nH]c2c1C(=O)c1c(c(O)c3ccccc3c1O)C2=O | 8.24 | 23.9
CN1CCc2c(Sc3ccc(C(=O)NO)cc3)c3ccccc3n2C1 | 1.85 | 4.31
CC(=O)O[C@@H]1C[C@]2(C(C)C)O[C@@]1(C)[C@@H]1CCC(C)=C1[C@@H]2OC(=O)/C=C/c1ccccc1 | 35.1 | > 100
NC(N)=N/N=C/c1cc(Cl)cc(Cl)c1O | – | > 100
N#CC1Nc2ccccc2[C@@H](O)C1O (some centres undefined) | – | > 100
c1ccc2c3ccn4cc5c(cc4c-3nc2c1)CCCC5 | – | 14.4

Tested on: T-47D breast
Assay: NCI tumour cell line growth inhibition, 48 h

SMILES | GI50 [µM] | TGI [µM]
Cc1cc(NC(=O)c2ccc(C)c(Nc3nccc(-c4cccnc4)n3)c2)cc(-n2cnc(C)c2)c1 | 1.34 | 3.77
O=C(O)c1c(-c2nccc3ccccc23)[nH]c(-c2ccccc2)c1S(=O)(=O)O | – | > 100
Cc1[nH]n(-c2cccc(Cl)c2)c(=O)c1/C=C1\C=Nc2ccc(Br)cc21 | 2.06 | 6.26
CCCS(=O)(=O)Nc1ccc(Nc2c3ccccc3nc3ccccc23)c(OC)c1 | – | 20.5
CCN(CC)CCNCC(=O)Oc1ccc(/C=C/C(=O)CC(=O)/C=C/c2ccc(OC(=O)CNCCN(CC)CC)c(OC)c2)cc1OC | 6.1 | 31.6
O=C(O)Cc1c(O)ccc2ccccc12 | – | > 100
Cc1ccc(Nc2nc(N)c(C(=O)c3ccc(C#N)cc3)s2)cc1 | 0.384 | > 100
CN(C)Cc1c[nH]c2c1C(=O)c1c(c(O)c3ccccc3c1O)C2=O | 11.4 | > 100
CN1CCc2c(Sc3ccc(C(=O)NO)cc3)c3ccccc3n2C1 | 1.62 | 5.84
CC(=O)O[C@@H]1C[C@]2(C(C)C)O[C@@]1(C)[C@@H]1CCC(C)=C1[C@@H]2OC(=O)/C=C/c1ccccc1 | 19.7 | > 100
NC(N)=N/N=C/c1cc(Cl)cc(Cl)c1O | – | > 100
N#CC1Nc2ccccc2[C@@H](O)C1O (some centres undefined) | – | > 100
c1ccc2c3ccn4cc5c(cc4c-3nc2c1)CCCC5 | 3.27 | 15
